Measured values: patent US12643885B2, “KRAS G12D protein inhibitors” (TAIHO PHARMACEUTICAL CO., LTD., priority 2020, dated 2026)
pIC50: −log10 of the molar value.

molecular target: T1, KRAS G12D (Homo sapiens, UniProt P01116, G12D); assay: Inhibitory activity on KRAS G12D nucleotide (GDP-GTP) exchange reaction in vitro (SOS1-dependent, BODIPY FL GDP); type: biochemical; details: BODIPY FL GDP-bound recombinant KRAS G12D, 25° C. 1 hour preincubation, then SOS1 and GMPPNP 30 minutes at room temperature
T1 construct: made in house; host or cells: Escherichia coli BL21 (DE3), pET28a
Source text: Test Example: Evaluation of Inhibitory Activity of Compounds of Examples 1-21 on KRAS G12D Nucleotide (GDP-GTP) Exchange Reaction In Vitro
Recombinant KRAS G12D (conjugated N-terminus His6-tag, TEV protease cleavage site and KRAS G12D residues 1-169 (SEQ ID NO: 1), prepared by the method described below) and cleaved recombinant SOS1 (residues 564-1049 (SEQ ID NO: 2), prepared by the method described below) proteins were expressed in E. coli and purified by affinity chromatography.
To prepare BODIPY FL (fluorescent dye) GDP-bound KRAS G12D protein, 50 μM KRAS G12D protein was incubated with 0.5 mM BODIPY FL GDP in a loading buffer (20 mM Tris-HCl (pH 7.5), 50 mM NaCl, 1 mM DTT and 2.5 mM EDTA) for 1 hour on ice. After the incubation, MgCl2 was added to a final concentration of 10 mM, followed by incubation at room temperature for 30 minutes.
The mixture was allowed to pass through a NAP-5 column to remove free nucleotides, and purified BODIPY FL GDP-bound KRAS G12D protein was used for compound evaluation.
For the measurement of the inhibitory activity of compounds on GDP-GTP exchange rate of recombinant KRAS G12D, BODIPY FL GDP-bound KRAS G12D protein was incubated with various concentrations of compounds of Formula (I), i.e., compounds of Examples 1-21, in a reaction buffer (20 mM Tris-HCl (pH 7.5), 100 mM NaCl, 1 mM MgCl2, 2 mM DTT, 0.1% Tween 20) at 25° C. for 1 hour.
After the incubation, recombinant SOS1 and GMPPNP (guanosine-5′-[(β,γ)-imido]triphosphate, tetralithium salt) (Jena Bioscience GmbH, Jena, Germany) were added and incubated at room temperature for 30 minutes to proceed SOS1-dependent GDP-GTP exchange reaction on KRAS G12D. Replacement of BODIPY FL GDP by GMPPNP was measured by calculating the ratio of fluorescence intensities of BODIPY FL before and after the exchange reaction.
Inhibition % was calculated by setting the fluorescence ratio from the reaction without test compound (DMSO control) and the fluorescence ratio from the reaction without SOS1 and GMPPNP as 0% and 100% inhibition, respectively. IC50 values were calculated from a dose titration curve using curve fitting by XLfit software (IDBS, Boston, Massachusetts, US).

T1 sequence (P01116 with tags, fused parts or gaps isoform P01116-2 G12D): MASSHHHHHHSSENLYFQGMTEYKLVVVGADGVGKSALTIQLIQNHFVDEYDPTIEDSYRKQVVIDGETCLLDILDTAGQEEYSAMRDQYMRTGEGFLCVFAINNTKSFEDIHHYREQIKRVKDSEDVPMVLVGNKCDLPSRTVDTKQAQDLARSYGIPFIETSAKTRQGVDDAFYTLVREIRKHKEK

| Structure (SMILES) | pIC50 |
| --- | --- |
| CN(C(=O)c1c(Cl)nc(CNc2cc(C(C)(C)C)c(Cl)cc2O)n1C)C1CNC1 [Example 17, N-(azetidin-3-yl)-2-(((5-(tert-butyl)-4-chloro-2-hydroxyphenyl)amino)methyl)-4-chloro-N,1-dimethyl-1H-imidazole-5-carboxamide] | 4.92 |
| CC(C)N1CC[C@@H](n2c(CNc3n[nH]c4cc(Cl)c(C(C)(C)C)cc34)nc(Cl)c2C(=O)N(C)C2CNC2)C1 [Example 6, (R)-N-(azetidin-3-yl)-2-(((5-(tert-butyl)-6-chloro-1H-indazol-3-yl)amino)methyl)-4-chloro-1-(1-isopropylpyrrolidin-3-yl)-N-methyl-1H-imidazole-5-carboxamide] | 5.42 |
| CN(C(=O)c1c(Cl)nc(CNc2n[nH]c3cc(Cl)c(C(C)(C)C)cc23)n1C)[C@@H]1CCNC1 [Example 3, (R)-2-(((5-(tert-butyl)-6-chloro-1H-indazol-3-yl)amino)methyl)-4-chloro-N,1-dimethyl-N-(pyrrolidin-3-yl)-1H-imidazole-5-carboxamide] | 4.73 |
| C[C@@H]1NC[C@H]1N(C)C(=O)c1c(Cl)nc(CNc2n[nH]c3cc(Cl)c(C(C)(C)C)cc23)n1C (relative stereo) [Example 11] | 4.36 |
| CN(C(=O)c1c(Cl)nc(CNc2cc(C(C)(C)C)c(Cl)cc2O)n1C)[C@H]1CCNC1 [Example 16, (S)-2-(((5-(tert-butyl)-4-chloro-2-hydroxyphenyl)amino)methyl)-4-chloro-N,1-dimethyl-N-(pyrrolidin-3-yl)-1H-imidazole-5-carboxamide] | 4.58 |
| CC(C)N1CC[C@@H](n2c(CNc3n[nH]c4cc(Cl)c(C(C)(C)C)cc34)nc(Cl)c2C(=O)N(C)CCN)C1 [Example 8, (R)-N-(2-aminoethyl)-2-(((5-(tert-butyl)-6-chloro-1H-indazol-3-yl)amino)methyl)-4-chloro-1-(1-isopropylpyrrolidin-3-yl)-N-methyl-1H-imidazole-5-carboxamide] | 4.45 |
| CN[C@H]1C[C@@H]1N(C)C(=O)c1c(Cl)nc(CNc2n[nH]c3cc(Cl)c(C(C)(C)C)cc23)n1C [Example 12, 2-(((5-(tert-butyl)-6-chloro-1H-indazol-3-yl)amino)methyl)-4-chloro-N,1-dimethyl-N-((1S,2S)-2-(methylamino)cyclopropyl)-1H-imidazole-5-carboxamide] | 4.42 |
| CC(C)N1CC[C@@H](n2c(CNc3cc(C(C)(C)C)c(Cl)cc3O)nc(Cl)c2C(=O)N(C)[C@@H]2CCNC2)C1 [Example 18, 2-(((5-(tert-butyl)-4-chloro-2-hydroxyphenyl)amino)methyl)-4-chloro-1-((R)-1-isopropylpyrrolidin-3-yl)-N-methyl-N-((R)-pyrrolidin-3-yl)-1H-imidazole-5-carboxamide] | 5.80 |
| CC(C)N1CC[C@@H](n2c(CNc3cc(C(C)(C)C)c(Cl)cc3O)nc(Cl)c2C(=O)N(C)[C@H]2CCNC2)C1 [Example 19, 2-(((5-(tert-butyl)-4-chloro-2-hydroxyphenyl)amino)methyl)-4-chloro-1-((R)-1-isopropylpyrrolidin-3-yl)-N-methyl-N-((S)-pyrrolidin-3-yl)-1H-imidazole-5-carboxamide] | 5.43 |

Further molecules by rising pIC50, results first:

| pIC50 | Structure (SMILES) |
| --- | --- |
| 4.33 | CN(C(=O)c1c(Cl)nc(CNc2n[nH]c3cc(Cl)c(C(C)(C)C)cc23)n1C)[C@@H]1CNCC12CC2 [Example 10, (S)-2-(((5-(tert-butyl)-6-chloro-1H-indazol-3-yl)amino)methyl)-4-chloro-N,1-dimethyl-N-(5-azaspiro[2.4]heptan-7-yl)-1H-imidazole-5-carboxamide] |
| 4.36 | CN(CCN)C(=O)c1c(Cl)nc(CNc2n[nH]c3cc(Cl)c(C(C)(C)C)cc23)n1C [Example 7, N-(2-aminoethyl)-2-(((5-(tert-butyl)-6-chloro-1H-indazol-3-yl)amino)methyl)-4-chloro-N,1-dimethyl-1H-imidazole-5-carboxamide] |
| 4.37 | C[C@@H]1CNC[C@@H]1N(C)C(=O)c1c(Cl)nc(CNc2n[nH]c3cc(Cl)c(C(C)(C)C)cc23)n1C (relative stereo) [Example 14, 2-(((5-(tert-butyl)-6-chloro-1H-indazol-3-yl)amino)methyl)-4-chloro-N,1-dimethyl-N-(cis-4-methylpyrrolidin-3-yl)-1H-imidazole-5-carboxamide] |
| 4.42 | Cn1c(CNc2n[nH]c3cc(Cl)c(C(C)(C)C)cc23)nc(Cl)c1C(=O)N1CCCNCC1 [Example 4, (2-(((5-(tert-butyl)-6-chloro-1H-indazol-3-yl)amino)methyl)-4-chloro-1-methyl-1H-imidazol-5-yl)(1,4-diazepan-1-yl)methanone] |
| 4.47 | CC[C@@H]1CNC[C@@H]1N(C)C(=O)c1c(Cl)nc(CNc2n[nH]c3cc(Cl)c(C(C)(C)C)cc23)n1C [Example 9, 2-(((5-(tert-butyl)-6-chloro-1H-indazol-3-yl)amino)methyl)-4-chloro-N-((3R,4R)-4-ethylpyrrolidin-3-yl)-N,1-dimethyl-1H-imidazole-5-carboxamide] |
| 4.48 | CN(C(=O)c1c(Cl)nc(CNc2cc(C(C)(C)C)c(Cl)cc2O)n1C)[C@@H]1CCNC1 [Example 15, (R)-2-(((5-(tert-butyl)-4-chloro-2-hydroxyphenyl)amino)methyl)-4-chloro-N,1-dimethyl-N-(pyrrolidin-3-yl)-1H-imidazole-5-carboxamide] |
| 4.50 | CN(C(=O)c1c(Cl)nc(CNc2n[nH]c3cc(Cl)c(C(C)(C)C)cc23)n1C)C1CCNC1 (stereo not drawn) [Example 21, 2-(((5-(tert-butyl)-6-chloro-1H-indazol-3-yl)amino)methyl)-4-chloro-N,1-dimethyl-N-(pyrrolidin-3-yl)-1H-imidazole-5-carboxamide] |
| 4.68 | CN(C(=O)c1c(Cl)nc(CNc2n[nH]c3cc(Cl)c(C(C)(C)C)cc23)n1C)C1CNC1 [Example 1, N-(azetidin-3-yl)-2-(((5-(tert-butyl)-6-chloro-1H-indazol-3-yl)amino)methyl)-4-chloro-N,1-dimethyl-1H-imidazole-5-carboxamide] |
| 4.77 | C[C@H]1CNC[C@@H]1N(C)C(=O)c1c(Cl)nc(CNc2n[nH]c3cc(Cl)c(C(C)(C)C)cc23)n1C (relative stereo) [Example 13, 2-(((5-(tert-butyl)-6-chloro-1H-indazol-3-yl)amino)methyl)-4-chloro-N,1-dimethyl-N-(trans-4-methylpyrrolidin-3-yl)-1H-imidazole-5-carboxamide] |
| 4.91 | CN(C(=O)c1c(Cl)nc(CNc2n[nH]c3cc(Cl)c(C(C)(C)C)cc23)n1C)[C@H]1CCNC1 [Example 2, (S)-2-(((5-(tert-butyl)-6-chloro-1H-indazol-3-yl)amino)methyl)-4-chloro-N,1-dimethyl-N-(pyrrolidin-3-yl)-1H-imidazole-5-carboxamide] |
| 5.49 | CC(C)N1CC[C@@H](n2c(CNc3cc(C(C)(C)C)c(Cl)cc3O)nc(Cl)c2C(=O)N(C)C2CNC2)C1 [Example 20, (R)-N-(azetidin-3-yl)-2-(((5-(tert-butyl)-4-chloro-2-hydroxyphenyl)amino)methyl)-4-chloro-1-(1-isopropylpyrrolidin-3-yl)-N-methyl-1H-imidazole-5-carboxamide] |
| 5.89 | CC(C)N1CC[C@@H](n2c(CNc3n[nH]c4cc(Cl)c(C(C)(C)C)cc34)nc(Cl)c2C(=O)N(C)[C@@H]2CCNC2)C1 [Example 5, 2-(((5-(tert-butyl)-6-chloro-1H-indazol-3-yl)amino)methyl)-4-chloro-1-((R)-1-isopropylpyrrolidin-3-yl)-N-methyl-N-((R)-pyrrolidin-3-yl)-1H-imidazole-5-carboxamide] |
